Experimental data as given in patent US12071453B2, “Neuroactive steroids, compositions, and uses thereof” (Sage Therapeutics, Inc., priority 2013, dated 2024).

Key:
[1] = biological target: T1, GABAA receptors composed of the α1β2γ2 subunits (GABRA1/GABRB2/GABRG2) (Homo sapiens, UniProt P14867+P47870); assay: Two Electrode Voltage Clamp (TEVC), GABA receptor potentiation in Xenopus laevis oocytes, α1β2γ2; type: cell-based; settings: 10 μM compound, 10 μM GABA, read-out: GABA (α1β2γ2) % efficacy at 10 μM
T1 construct: expressed in transfected cells; host or cells: Xenopus laevis oocytes, injected (ratio 1:1:1)
T1 sequence (P14867 28-456): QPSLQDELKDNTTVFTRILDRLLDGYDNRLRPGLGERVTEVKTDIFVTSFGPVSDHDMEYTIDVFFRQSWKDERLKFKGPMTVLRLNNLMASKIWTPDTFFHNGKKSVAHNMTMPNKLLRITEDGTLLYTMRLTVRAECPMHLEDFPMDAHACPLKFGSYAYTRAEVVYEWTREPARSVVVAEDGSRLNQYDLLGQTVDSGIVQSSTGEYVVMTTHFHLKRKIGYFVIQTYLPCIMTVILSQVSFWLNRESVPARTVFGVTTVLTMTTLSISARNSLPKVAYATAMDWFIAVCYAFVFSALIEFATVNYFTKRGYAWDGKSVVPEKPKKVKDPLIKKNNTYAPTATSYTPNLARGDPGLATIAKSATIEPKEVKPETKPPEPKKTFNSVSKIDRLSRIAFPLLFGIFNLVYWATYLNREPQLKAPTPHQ
T1 sequence (P47870 26-512): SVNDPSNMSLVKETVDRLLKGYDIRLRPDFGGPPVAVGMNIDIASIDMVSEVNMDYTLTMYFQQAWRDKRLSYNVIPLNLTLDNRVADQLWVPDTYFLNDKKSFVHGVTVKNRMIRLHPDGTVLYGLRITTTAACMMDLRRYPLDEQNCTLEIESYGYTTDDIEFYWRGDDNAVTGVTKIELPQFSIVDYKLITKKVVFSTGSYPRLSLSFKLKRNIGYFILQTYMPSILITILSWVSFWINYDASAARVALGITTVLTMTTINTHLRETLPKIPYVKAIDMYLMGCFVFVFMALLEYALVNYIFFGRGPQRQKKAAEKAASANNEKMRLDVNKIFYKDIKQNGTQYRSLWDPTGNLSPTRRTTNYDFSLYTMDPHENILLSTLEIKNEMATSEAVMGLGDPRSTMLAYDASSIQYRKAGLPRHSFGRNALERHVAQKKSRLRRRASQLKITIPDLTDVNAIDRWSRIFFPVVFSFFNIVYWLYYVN
T1 sequence (P18507 40-475 partner): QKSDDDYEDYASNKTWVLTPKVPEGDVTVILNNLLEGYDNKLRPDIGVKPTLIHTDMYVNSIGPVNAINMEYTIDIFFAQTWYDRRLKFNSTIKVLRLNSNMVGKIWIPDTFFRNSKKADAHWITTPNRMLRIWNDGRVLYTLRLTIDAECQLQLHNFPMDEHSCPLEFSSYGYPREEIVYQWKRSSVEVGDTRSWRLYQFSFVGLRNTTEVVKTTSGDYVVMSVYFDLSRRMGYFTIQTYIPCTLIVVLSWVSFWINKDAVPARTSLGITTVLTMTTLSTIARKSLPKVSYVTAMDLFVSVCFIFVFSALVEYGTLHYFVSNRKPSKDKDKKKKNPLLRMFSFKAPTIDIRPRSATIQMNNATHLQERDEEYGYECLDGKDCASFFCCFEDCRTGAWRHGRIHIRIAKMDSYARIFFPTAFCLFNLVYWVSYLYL
Procedure: (§1) The Two Electrode Voltage Clamp (TEVC) technique was used to investigate the effects of compounds at a concentration of 10 μM on GABAA receptors composed of the α1β2γ2 or α4β3δ subunits expressed in oocytes from the Xenopus laevis. GABA-evoked currents were recorded from oocytes that expressed the GABA receptors and the modulatory effects of the test items on these currents were investigated.
(§2) Ovaries were harvested from Xenopus laevis females that had been deeply anesthetized by cooling at 4° C. and immersion in Tricaine methanesulfonate (MS-222 at a concentration of 150 mg/L) in sodium bicarbonate (300 mg/L). Once anesthetized the animal was decapitated and pithed following the rules of animal rights from the Geneva canton. A small piece of ovary was isolated for immediate preparation while the remaining part was placed at 4° C. in a sterile Barth solution containing in mM NaCl 88, KCl 1, NaHCO3 2.4, HEPES 10, MgSO4·7H2O 0.82, Ca(NO3)2·4H2O 0.33, CaCl2·6H2O 0.41, at pH 7.4, and supplemented with 20 μg/ml of kanamycin, 100 unit/ml penicillin and 100 μg/ml streptomycin. All recordings were performed at 18° C. and cells were super-fused with medium containing in mM: NaCl 82.5, KCl 2.5, HEPES 5, CaCl2·2H2O, ·6H2O 1, pH 7.4.
(§3) Plasmids containing the RNAs of the human GABRA1/GABRB2/GABRG2 and GABRA4/GABRB3/GABRD genes were injected into oocytes using a proprietary automated injection device (Hogg el al., J. Neurosci. Methods, (2008) 169: 65-75). These genes encode for the α1β2γ2 and α4β3δ GABAA subunits respectively. Receptor expression was assessed using electrophysiology at least two days later. The ratio of RNA injection for α1β2γ2 was 1:1:1 and for α4β3δ was 5:1:5. Electrophysiological recordings were made using an automated process equipped with standard TEVC and data were captured and analyzed using a proprietary data acquisition and analysis software running under Matlab (Mathworks Inc.). The membrane potential of the oocytes was maintained at −80 mV throughout the experiments. To explore the effects of proprietary compounds, currents were evoked by applying 10 μM (α1β2γ2) or 3 μM (α4β3δ) GABA for 30 s. These concentrations approximated the EC50 concentration of GABA at each receptor subtype. Oocytes were then re-exposed to GABA again for 30 s. 15 s after beginning the GABA application, test article was co-applied at a concentration of 10 μM for 15 s. Potentiation of the peak current was assessed. Data was filtered at 10 Hz, captured at 100 Hz and analyzed using proprietary data acquisition and analysis software running under Matlab (Mathworks Inc.). For statistical analysis values were computed either with Excel (Microsoft) or Matlab (mathworks Inc.). To obtain mean measurements with standard deviations, all experiments were carried out using at least three cells.

[2] = biological target: T2, GABAA receptors composed of the α4β3δ subunits (GABRA4/GABRB3/GABRD) (Homo sapiens, UniProt P28472+P48169); assay: Two Electrode Voltage Clamp (TEVC), GABA receptor potentiation in Xenopus laevis oocytes, α4β3δ; type: cell-based; settings: 10 μM compound, 3 μM GABA, read-out: GABA (α4β3δ) % efficacy at 10 μM
T2 construct: expressed in transfected cells; host or cells: Xenopus laevis oocytes, injected (ratio 5:1:5)
T2 sequence (P48169 36-554): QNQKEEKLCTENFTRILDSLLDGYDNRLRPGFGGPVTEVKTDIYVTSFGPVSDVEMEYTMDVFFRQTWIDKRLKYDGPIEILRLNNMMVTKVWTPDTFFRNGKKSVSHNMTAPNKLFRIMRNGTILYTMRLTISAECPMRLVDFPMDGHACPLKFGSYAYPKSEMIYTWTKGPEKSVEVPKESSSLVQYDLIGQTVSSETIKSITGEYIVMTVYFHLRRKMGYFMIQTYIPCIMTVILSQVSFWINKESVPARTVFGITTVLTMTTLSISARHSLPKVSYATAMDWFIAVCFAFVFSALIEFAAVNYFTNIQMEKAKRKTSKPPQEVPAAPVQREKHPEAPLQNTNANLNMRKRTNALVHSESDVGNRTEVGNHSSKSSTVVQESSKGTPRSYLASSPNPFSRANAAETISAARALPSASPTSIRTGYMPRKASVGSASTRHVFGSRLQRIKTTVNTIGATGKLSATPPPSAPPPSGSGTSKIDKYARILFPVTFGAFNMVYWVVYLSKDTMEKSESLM
T2 sequence (P28472 26-473): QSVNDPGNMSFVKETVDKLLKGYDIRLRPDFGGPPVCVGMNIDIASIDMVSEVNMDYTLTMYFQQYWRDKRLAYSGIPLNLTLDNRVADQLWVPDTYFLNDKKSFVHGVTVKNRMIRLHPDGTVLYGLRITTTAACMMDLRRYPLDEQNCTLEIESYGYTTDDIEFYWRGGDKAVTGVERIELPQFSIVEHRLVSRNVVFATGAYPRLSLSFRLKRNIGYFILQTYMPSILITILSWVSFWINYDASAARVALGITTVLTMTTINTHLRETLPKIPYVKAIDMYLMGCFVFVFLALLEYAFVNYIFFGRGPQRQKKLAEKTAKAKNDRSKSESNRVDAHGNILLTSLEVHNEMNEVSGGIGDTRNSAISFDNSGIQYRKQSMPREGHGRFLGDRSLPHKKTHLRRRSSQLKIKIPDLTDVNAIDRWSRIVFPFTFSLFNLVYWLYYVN
T2 sequence (O14764 25-452 partner): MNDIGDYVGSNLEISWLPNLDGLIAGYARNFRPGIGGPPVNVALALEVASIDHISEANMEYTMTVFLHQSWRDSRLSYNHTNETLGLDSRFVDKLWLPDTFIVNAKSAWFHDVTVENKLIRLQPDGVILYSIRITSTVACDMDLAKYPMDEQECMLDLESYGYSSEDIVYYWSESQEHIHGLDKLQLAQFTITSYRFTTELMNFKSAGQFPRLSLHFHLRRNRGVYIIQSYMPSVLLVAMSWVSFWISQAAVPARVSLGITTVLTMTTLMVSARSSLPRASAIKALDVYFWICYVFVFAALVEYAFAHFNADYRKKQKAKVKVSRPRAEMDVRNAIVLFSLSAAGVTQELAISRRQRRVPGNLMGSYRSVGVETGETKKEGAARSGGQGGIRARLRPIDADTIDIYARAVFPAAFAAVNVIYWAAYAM
Procedure: as §1, §2, §3

[3] = biological target: [35S]-TBPS binding in rat brain cortical membranes; assay: Steroid inhibition of [35S]-TBPS binding, rat brain cortical membranes; settings: 3 nM [35S]-TBPS, in the presence of 5 μM GABA, read-out: 35S-TBPS Radioligand Displacement (IC50)
Procedure: TBPS binding assays using rat brain cortical membranes in the presence of 5 μM GABA has been described (Gee et al, J. Pharmacol. Exp. Ther. 1987, 241, 346-353; Hawkinson et al, Mol. Pharmacol. 1994, 46, 977-985; Lewin, A. H et al., Mol. Pharmacol. 1989, 35, 189-194).
Briefly, cortices are rapidly removed following decapitation of carbon dioxide-anesthetized Sprague-Dawley rats (200-250 g). The cortices are homogenized in 10 volumes of ice-cold 0.32 M sucrose using a glass/teflon homogenizer and centrifuged at 1500×g for 10 min at 4° C. The resultant supernatants are centrifuged at 10,000×g for 20 min at 4° C. to obtain the P2 pellets. The P2 pellets are resuspended in 200 mM NaCl/50 mM Na—K phosphate pH 7.4 buffer and centrifuged at 10,000×g for 10 min at 4° C. This washing procedure is repeated twice and the pellets are resuspended in 10 volumes of buffer. Aliquots (100 μL) of the membrane suspensions are incubated with 3 nM [^35S]-TBPS and 5 μL aliquots of test drug dissolved in dimethyl sulfoxide (DMSO) (final 0.5%) in the presence of 5 μM GABA. The incubation is brought to a final volume of 1.0 mL with buffer. Nonspecific binding is determined in the presence of 2 μM unlabeled TBPS and ranged from 15 to 25%. Following a 90 min incubation at room temp, the assays are terminated by filtration through glass fiber filters (Schleicher and Schuell No. 32) using a cell harvester (Brandel) and rinsed three times with ice-cold buffer. Filter bound radioactivity is measured by liquid scintillation spectrometry. Non-linear curve fitting of the overall data for each drug averaged for each concentration is done using Prism (GraphPad). […] The concentration of test compound producing 50% inhibition (IC50) of specific binding and the maximal extent of inhibition (Imax) are determined for the individual experiments with the same model used for the overall data and then the mean±SEM.s of the individual experiments are calculated.
Various compounds are or can be screened to determine their potential as modulators of [^35S]-TBPS binding in vitro. These assays are or can be performed in accordance with the above discussed procedures.

COC[C@]12CC[C@@](C)(O)C[C@@H]1CC[C@H]1[C@@H]3CC[C@H](C(=O)Cn4cc(Cl)cn4)[C@@]3(C)CC[C@@H]12 [Compound 18]
Emax at 10 µM [1]: 1000 to 1500% | Emax at 10 µM [2]: 1000 to 1500%

COC[C@]12CC[C@@](C)(O)C[C@@H]1CC[C@H]1[C@@H]3CC[C@H](C(=O)Cn4ccnc4F)[C@@]3(C)CC[C@@H]12 [Compound 21]
IC50 [3]: 100 to 500 nM | Emax at 10 µM [1]: 50 to 500% | Emax at 10 µM [2]: 50 to 500%

CCOC[C@]12CC[C@@](C)(O)C[C@@H]1CC[C@H]1[C@@H]3CC[C@H](C(=O)Cn4nnnc4C)[C@@]3(C)CC[C@@H]12 [Compound 26]
IC50 [3]: 50 to 100 nM | Emax at 10 µM [1]: 500 to 1000% | Emax at 10 µM [2]: 1000 to 1500%

COC[C@]12CC[C@@](C)(O)C[C@H]1CC[C@H]1[C@@H]3CC[C@H](C(=O)Cn4nnc(C)n4)[C@@]3(C)CC[C@@H]12 [Compound 29]
IC50 [3]: 100 to 500 nM | Emax at 10 µM [1]: 50 to 500% | Emax at 10 µM [2]: 500 to 1000%

COC[C@]12CC[C@@](C)(O)C[C@H]1CC[C@H]1[C@@H]3CC[C@H](C(=O)Cn4ccnn4)[C@@]3(C)CC[C@@H]12 [Compound 32]
IC50 [3]: 50 to 100 nM | Emax at 10 µM [1]: 50 to 500% | Emax at 10 µM [2]: 1000 to 1500%

COC[C@]12CC[C@@](C)(O)C[C@H]1CC[C@H]1[C@@H]3CC[C@H](C(=O)Cn4cc(S(C)(=O)=O)cn4)[C@@]3(C)CC[C@@H]12 [Compound 33]
IC50 [3]: 10 to 50 nM | Emax at 10 µM [1]: 50 to 500% | Emax at 10 µM [2]: 50 to 500%

COC[C@]12CC[C@@](C)(O)C[C@@H]1CC[C@H]1[C@@H]3CC[C@H](C(=O)Cn4ncc5ccncc54)[C@@]3(C)CC[C@@H]12 [Compound 45]
IC50 [3]: 50 to 100 nM | Emax at 10 µM [1]: 500 to 1000% | Emax at 10 µM [2]: 1000 to 1500%

COC[C@]12CC[C@@](C)(O)C[C@@H]1CC[C@H]1[C@@H]3CC[C@H](C(=O)Cn4nnc5cccc(F)c54)[C@@]3(C)CC[C@@H]12 [Compound 47]
IC50 [3]: 10 to 50 nM | Emax at 10 µM [1]: 500 to 1000% | Emax at 10 µM [2]: 1000 to 1500%

COC[C@]12CC[C@@](C)(O)C[C@@H]1CC[C@H]1[C@@H]3CC[C@H](C(=O)Cn4nnc5c(F)cccc54)[C@@]3(C)CC[C@@H]12 [Compound 48]
IC50 [3]: 10 to 50 nM | Emax at 10 µM [1]: 500 to 1000% | Emax at 10 µM [2]: 50 to 500%

COC[C@]12CC[C@@](C)(O)C[C@@H]1CC[C@H]1[C@@H]3CC[C@H](C(=O)Cn4nnc5ccc(OC)cc54)[C@@]3(C)CC[C@@H]12 [Compound 51]
IC50 [3]: 10 to 50 nM | Emax at 10 µM [1]: 500 to 1000% | Emax at 10 µM [2]: 1000 to 1500%

COC[C@]12CC[C@@](C)(O)C[C@@H]1CC[C@H]1[C@@H]3CC[C@H](C(=O)Cn4nc5cccc(OC)c5n4)[C@@]3(C)CC[C@@H]12 [Compound 57]
IC50 [3]: 50 to 100 nM | Emax at 10 µM [1]: 50 to 500% | Emax at 10 µM [2]: 500 to 1000%

COC[C@]12CC[C@@](C)(O)C[C@@H]1CC[C@H]1[C@@H]3CC[C@H](C(=O)Cn4nnc5c(OC)cccc54)[C@@]3(C)CC[C@@H]12 [Compound 58]
IC50 [3]: < 10 nM | Emax at 10 µM [1]: 500 to 1000% | Emax at 10 µM [2]: 500 to 1000%

COC[C@]12CC[C@@](C)(O)C[C@@H]1CC[C@H]1[C@@H]3CC[C@H](C(=O)Cn4nnc5cccc(Cl)c54)[C@@]3(C)CC[C@@H]12 [Compound 59]
IC50 [3]: 10 to 50 nM | Emax at 10 µM [1]: 500 to 1000% | Emax at 10 µM [2]: 500 to 1000%

COC[C@]12CC[C@@](C)(O)C[C@@H]1CC[C@H]1[C@@H]3CC[C@H](C(=O)Cn4nnc5ccc(OC)c(OC)c54)[C@@]3(C)CC[C@@H]12 [Compound 62]
IC50 [3]: 10 to 50 nM | Emax at 10 µM [1]: 500 to 1000% | Emax at 10 µM [2]: 1000 to 1500%

COC[C@]12CC[C@@](C)(O)C[C@@H]1CC[C@H]1[C@@H]3CC[C@H](C(=O)Cn4nc5ccc(OC)c(OC)c5n4)[C@@]3(C)CC[C@@H]12 [Compound 64]
IC50 [3]: 10 to 50 nM | Emax at 10 µM [1]: 1000 to 1500% | Emax at 10 µM [2]: 500 to 1000%

COC[C@]12CC[C@@](C)(O)C[C@@H]1CC[C@H]1[C@@H]3CC[C@H](C(=O)Cn4nnc5c(OC)cc(OC)cc54)[C@@]3(C)CC[C@@H]12 [Compound 66]
IC50 [3]: 10 to 50 nM | Emax at 10 µM [1]: 50 to 500% | Emax at 10 µM [2]: 1000 to 1500%

COC[C@]12CC[C@@](C)(O)C[C@@H]1CC[C@H]1[C@@H]3CC[C@H](C(=O)Cn4ncc5ncc(Br)cc54)[C@@]3(C)CC[C@@H]12 [Compound 67]
IC50 [3]: 10 to 50 nM | Emax at 10 µM [1]: 50 to 500% | Emax at 10 µM [2]: 500 to 1000%

COC[C@]12CC[C@@](C)(O)C[C@@H]1CC[C@H]1[C@@H]3CC[C@H](C(=O)Cn4cc5ncc(Cl)cc5n4)[C@@]3(C)CC[C@@H]12 [Compound 68]
IC50 [3]: 10 to 50 nM | Emax at 10 µM [1]: 50 to 500% | Emax at 10 µM [2]: 1000 to 1500%

COC[C@]12CC[C@@](C)(O)C[C@H]1CC[C@H]1[C@@H]3CC[C@H](C(=O)Cn4nnc5c(F)cccc54)[C@@]3(C)CC[C@@H]12 [Compound 82]
Emax at 10 µM [1]: 500 to 1000% | Emax at 10 µM [2]: 500 to 1000%

COC[C@]12CC[C@@](C)(O)C[C@@H]1CC[C@H]1[C@@H]3CC[C@H](C(=O)Cn4nnc5ncc(Cl)cc54)[C@@]3(C)CC[C@@H]12 [Compound 101]
IC50 [3]: 10 to 50 nM | Emax at 10 µM [1]: 500 to 1000%

COC[C@]12CC[C@@](C)(O)C[C@@H]1CC[C@H]1[C@@H]3CC[C@H](C(=O)Cn4cc5nccnc5n4)[C@@]3(C)CC[C@@H]12 [Compound 103]
IC50 [3]: > 500 nM | Emax at 10 µM [1]: 1000 to 1500%

COC[C@]12CC[C@@](C)(O)C[C@@H]1CC[C@H]1[C@@H]3CC[C@H](C(=O)Cn4ncc5cc(F)ccc54)[C@@]3(C)CC[C@@H]12 [Compound 107]
IC50 [3]: > 500 nM | Emax at 10 µM [1]: 500 to 1000%

COC[C@]12CC[C@@](C)(O)C[C@@H]1CC[C@H]1[C@@H]3CC[C@H](C(=O)Cn4ncc5ccc(F)cc54)[C@@]3(C)CC[C@@H]12 [Compound 110]
IC50 [3]: 50 to 100 nM | Emax at 10 µM [1]: 500 to 1000%

COC[C@]12CC[C@@](C)(O)C[C@@H]1CC[C@H]1[C@@H]3CC[C@H](C(=O)Cn4cc5ccc(F)cc5n4)[C@@]3(C)CC[C@@H]12 [Compound 111]
IC50 [3]: 50 to 100 nM | Emax at 10 µM [1]: 500 to 1000%

COC[C@]12CC[C@@](C)(O)C[C@@H]1CC[C@H]1[C@@H]3CC[C@H](C(=O)Cn4ncc5ccc(Cl)cc54)[C@@]3(C)CC[C@@H]12 [Compound 112]
IC50 [3]: 50 to 100 nM | Emax at 10 µM [1]: 50 to 500%
